Experiments:
[1] = test system: genetically-alcoholic rats (UChB strain); experiment: Anti-alcoholism activity in genetically-alcoholic rats (consumption of 10% v/v alcohol); format: in vivo, rat; details: for Reduction percentage in the consumption of alcohol (10% v/v), treat.: first 6 h after starting the treatment, vs reference period; for Reduction percentage in the consumption of alcohol (10% v/v), post-treat.: first 6 h after having stopped a 3-day treatment
Text: As an animal model of alcoholic humans, adult Wistar rats of both sexes, belonging to the UChB strain were used. This strain of rats is the result of a long selection at the University of Chile, and rats belonging to it are known to be volunteer consumers of 10% (v/v) aqueous alcohol (cf. J. Mardones and N. Segovia-Riquelme, “Thirty two years of selection of rats by ethanol preference”: UChA and UChB strains”, Neurobehav. Toxicol. and Teratol. 1983, vol. 5, pp. 171–178). Thus, the rats used in these experiments can be considered genetically alcoholic.
Rats were kept in individual cages at 22° C., with alternative 12 h periods of light and darkness. Besides unlimited access to food, they had ad libitum access to water and 10% (v/v) aqueous alcohol. All experiments were double-blind, and results were analyzed using common statistical methods. As changes in alcohol consumption might be influenced by the eagerness of food and/or water intake, both the consumption of food and of water were measured and analyzed. However, experimental changes in the consumptions of both food and water were not significant. In each experiment the following three periods of time were considered:
a) A reference period, consisting of the three days previous to treatment. The measured consumption values were used as reference for comparison purposes.
b) A treatment period, consisting of the three days during which aqueous solutions of the tested compounds (obtained from SIGMA) were intra-gastrically administered, always at the same time of the day. Polyamines were administered as aqueous solutions of their corresponding fully-neutralized hydrochlorides, at concentration of 100 mg of the free-amine per 100 ml of water, when doses of 2 mg of amine per kg of rat; and at concentration of 1000 mg/100 ml, When doses of 20 mg/kg. Dansyl derivatives of polyamines were administered as aqueous suspensions of 100 mg of derivative per 100 ml of water, when doses of 4 mg of free-amine per kg of rat.
c) A post-treatment period, consisting of the three days immediate after the treatment period, during which measurement were taken in order to establish the duration of the effect and the reversibility of the changes.
Table 1 summarizes the average results from nine experiments, each one carried out with a set of 8 rats, where several compounds at different doses were used, and measurements of alcohol consumption were done at 6 h after the beginning of the treatment period, and at 6 h after the beginning of the post-treatment period. Figures in the table are differences in 10% (v/v) ethanol consumption between a given consumption during the reference period and the corresponding consumption during the treatment (or post-treatment) period, expressed a percentage of the consumption during the reference period (i.e. divided by this and multiplied by 100). As indicated by the figures, during treatment a significant reduction occurred in all cases; and during post-treatment a significant reduction occurred in all cases but two (those marked “ns”=non significant). Results in the table also indicate that there is a dose-effect relationship in the reduction of alcohol consumption during the treatment period.

[2] = Assessment of the disulfiram-like adverse effect (blood acetaldehyde after ethanol injection); format: in vivo, rat; details: Wistar rats, single 2 mg/kg p.o. 1 h before ethanol, mean ± SEM
Procedure: Blood samples were taken from the tail of the rat at different times after the injection of the ethanol solution. […] The animals of the disulfiram group received two doses of 300 mg p.o. of disulfiram per kg of rat, 23 h and 17 h before the administration of ethanol. The high concentration of acetaldehyde detected in these groups was expected. […] The animals of the other four groups received a single dose p.o. of 2 mg of the corresponding compound (in the form of 10 mg/100 ml aqueous solutions, which was of the hydrochlorides in the case of polyamines) per kg of rat, 1 h before the administration of ethanol. Figures in the table are mean values (±SEM) of acetaldehyde concentration in blood at the indicated times. It is observed that values of the groups corresponding to the four tested compounds were only slightly above the control ones, but far below the corresponding values of the disulfiram group.

[3] = dose 20 mg/kg, ns = non significant
[4] = dose 2 mg/kg, ns = non significant

NCCCN [1,3-propanediamine]
Reduction percentage in the consumption of alcohol (10% v/v), treat. ([1]; dose 20 mg/kg intra-gastric): 27%
Reduction percentage in the consumption of alcohol (10% v/v), post-treat. [1, 3]: 12%

NCCCCN [putrescine]
Reduction percentage in the consumption of alcohol (10% v/v), treat. ([1]; dose 2 mg/kg intra-gastric): 13%
Reduction percentage in the consumption of alcohol (10% v/v), post-treat. [1, 4]: ns
Reduction percentage in the consumption of alcohol (10% v/v), treat. ([1]; dose 20 mg/kg intra-gastric): 28%
Reduction percentage in the consumption of alcohol (10% v/v), post-treat. [1, 3]: 13%

NCCCCNCCCN [spermidine]
Reduction percentage in the consumption of alcohol (10% v/v), treat. ([1]; dose 2 mg/kg intra-gastric): 25%
Reduction percentage in the consumption of alcohol (10% v/v), post-treat. [1, 4]: 17%
Reduction percentage in the consumption of alcohol (10% v/v), treat. ([1]; dose 20 mg/kg intra-gastric): 29%
Reduction percentage in the consumption of alcohol (10% v/v), post-treat. [1, 3]: ns

NCCCNCCCCNCCCN [spermine]
Reduction percentage in the consumption of alcohol (10% v/v), treat. ([1]; dose 2 mg/kg intra-gastric): 27%
Reduction percentage in the consumption of alcohol (10% v/v), post-treat. [1, 4]: 29%
Reduction percentage in the consumption of alcohol (10% v/v), treat. ([1]; dose 20 mg/kg intra-gastric): 42%
Reduction percentage in the consumption of alcohol (10% v/v), post-treat. [1, 3]: 12%

dansyl putrescine
Reduction percentage in the consumption of alcohol (10% v/v), treat. ([1]; dose 4 mg/kg intra-gastric): 23%
Reduction percentage in the consumption of alcohol (10% v/v), post-treat. ([1]; dose 4 mg/kg): 22%

dansyl spermidine
Acetaldehyde concentration in blood ([2]; 0.5 h after i.p. 2.76 g/kg ethanol): 150 ± 5 μg/100 ml
Acetaldehyde concentration in blood ([2]; 2 h after i.p. 2.76 g/kg ethanol): 40 ± 9 μg/100 ml
Reduction percentage in the consumption of alcohol (10% v/v), treat. ([1]; dose 4 mg/kg intra-gastric): 29%
Reduction percentage in the consumption of alcohol (10% v/v), post-treat. ([1]; dose 4 mg/kg): 19%

Source: patent publication US7232846B2, “Amines as anti-alcoholism agents” (priority 2001, dated 2007)
